Test results as given in ChEMBL document CHEMBL3885881, “DrugMatrix”.

Species: Rattus norvegicus
Test: DrugMatrix - Regimen: Daily Repeat
Assay type: toxicity, organism-based, Sprague-Dawley
Parameters: regimen Daily Repeat, gender Male, age 6-8 weeks
Details: in vivo, po, route oral GAVAGE, vehicle 100 % WATER; for ABSOLUTE BASOPHIL / ABSOLUTE EOSINOPHIL / ABSOLUTE LYMPHOCYTE / ABSOLUTE MONOCYTE / ABSOLUTE SEGMENTED NEUTROPHIL / BASOPHIL / EOSINOPHIL / ERYTHROCYTE COUNT / HEMATOCRIT / HEMOGLOBIN / LEUKOCYTE COUNT / LYMPHOCYTE / MEAN CORPUSCULAR HEMOGLOBIN / MEAN CORPUSCULAR HEMOGLOBIN CONCENTRATION / MEAN CORPUSCULAR VOLUME / MONOCYTE / NEUTROPHIL / NUCLEATED RED BLOOD CELLS / PLATELET COUNT: tissue Blood; for ALANINE AMINOTRANSFERASE / ALBUMIN / ALKALINE PHOSPHATASE / ASPARTATE AMINOTRANSFERASE / BLOOD UREA NITROGEN / CARBON DIOXIDE / CHLORIDE / CHOLESTEROL / CREATINE PHOSPHOKINASE / CREATININE / GLUCOSE / LACTATE DEHYDROGENASE / LIPASE / PHOSPHORUS / POTASSIUM / SODIUM / TOTAL BILIRUBIN / TOTAL PROTEIN / URIC ACID: tissue Plasma
[1] = 0 mg/kg, 72 h, dose level Control, time 3 day
[2] = 0 mg/kg, 120 h, dose level Control, time 5 day
[3] = 33 mg/kg, 72 h, dose level Low, time 3 day
[4] = 33 mg/kg, 120 h, dose level Low, time 5 day

SMILES: C1CCN2C[C@@H]3C[C@@H](CN4CCCC[C@@H]34)[C@H]2C1 [SPARTEINE]
- ABSOLUTE BASOPHIL [1]: 0 CELLS/uL
- ABSOLUTE EOSINOPHIL [1]: 86.33 CELLS/uL
- ABSOLUTE LYMPHOCYTE [1]: 12090.17 CELLS/uL
- ABSOLUTE MONOCYTE [1]: 166.67 CELLS/uL
- ABSOLUTE SEGMENTED NEUTROPHIL [1]: 1090.17 CELLS/uL
- BASOPHIL [1]: 0%
- EOSINOPHIL [1]: 0.67%
- ERYTHROCYTE COUNT [1]: 5.57 x10E6/uL
- HEMATOCRIT [1]: 35.33%
- HEMOGLOBIN [1]: 13.83 G/DL
- LEUKOCYTE COUNT [1]: 13.43 x10E3/uL
- LYMPHOCYTE [1]: 89.83%
- MEAN CORPUSCULAR HEMOGLOBIN [1]: 24.88 pg
- MEAN CORPUSCULAR HEMOGLOBIN CONCENTRATION [1]: 39.15 G/DL
- MEAN CORPUSCULAR VOLUME [1]: 63.52 fL
- MONOCYTE [1]: 1.17%
- NEUTROPHIL [1]: 8.33%
- NUCLEATED RED BLOOD CELLS [1]: 0 /100WBC
- PLATELET COUNT [1]: 1181.33 x10E3/uL
- ALANINE AMINOTRANSFERASE [1]: 48.33 u/L
- ALBUMIN [1]: 4.1 G/DL
- ALKALINE PHOSPHATASE [1]: 395 u/L
- ASPARTATE AMINOTRANSFERASE [1]: 81.83 u/L
- BLOOD UREA NITROGEN [1]: 15.83 mg/dL
- CARBON DIOXIDE [1]: 24.17 mmol/L
- CHLORIDE [1]: 103.83 MEQ/L
- CHOLESTEROL [1]: 63.67 mg/dL
- CREATINE PHOSPHOKINASE [1]: 372.83 u/L
- CREATININE [1]: 0.18 mg/dL
- GLUCOSE [1]: 173.83 mg/dL
- LACTATE DEHYDROGENASE [1]: 188.33 u/L
- LIPASE [1]: 9.5 u/L
- PHOSPHORUS [1]: 11.95 mg/dL
- POTASSIUM [1]: 5.99 MEQ/L
- SODIUM [1]: 144.43 MEQ/L
- TOTAL BILIRUBIN [1]: 0.15 mg/dL
- TOTAL PROTEIN [1]: 5.95 G/DL
- URIC ACID [1]: 1.82 mg/dL
- ABSOLUTE BASOPHIL [2]: 0 CELLS/uL
- ABSOLUTE EOSINOPHIL [2]: 26.67 CELLS/uL
- ABSOLUTE LYMPHOCYTE [2]: 7583.83 CELLS/uL
- ABSOLUTE MONOCYTE [2]: 131.33 CELLS/uL
- ABSOLUTE SEGMENTED NEUTROPHIL [2]: 674.83 CELLS/uL
- BASOPHIL [2]: 0%
- EOSINOPHIL [2]: 0.33%
- ERYTHROCYTE COUNT [2]: 5.78 x10E6/uL
- HEMATOCRIT [2]: 36.48%
- HEMOGLOBIN [2]: 14.03 G/DL
- LEUKOCYTE COUNT [2]: 8.42 x10E3/uL
- LYMPHOCYTE [2]: 89.83%
- MEAN CORPUSCULAR HEMOGLOBIN [2]: 24.3 pg
- MEAN CORPUSCULAR HEMOGLOBIN CONCENTRATION [2]: 38.52 G/DL
- MEAN CORPUSCULAR VOLUME [2]: 63.15 fL
- MONOCYTE [2]: 1.67%
- NEUTROPHIL [2]: 8.17%
- NUCLEATED RED BLOOD CELLS [2]: 0 /100WBC
- PLATELET COUNT [2]: 1186.67 x10E3/uL
- ALANINE AMINOTRANSFERASE [2]: 50.17 u/L
- ALBUMIN [2]: 4.07 G/DL
- ALKALINE PHOSPHATASE [2]: 367.5 u/L
- ASPARTATE AMINOTRANSFERASE [2]: 81.67 u/L
- BLOOD UREA NITROGEN [2]: 16.17 mg/dL
- CARBON DIOXIDE [2]: 32.33 mmol/L
- CHLORIDE [2]: 101.5 MEQ/L
- CHOLESTEROL [2]: 65.33 mg/dL
- CREATINE PHOSPHOKINASE [2]: 255.33 u/L
- CREATININE [2]: 0.17 mg/dL
- GLUCOSE [2]: 139.33 mg/dL
- LACTATE DEHYDROGENASE [2]: 95 u/L
- LIPASE [2]: 10.5 u/L
- PHOSPHORUS [2]: 10.38 mg/dL
- POTASSIUM [2]: 6.11 MEQ/L
- SODIUM [2]: 145.55 MEQ/L
- TOTAL BILIRUBIN [2]: 0.17 mg/dL
- TOTAL PROTEIN [2]: 5.98 G/DL
- URIC ACID [2]: 0.93 mg/dL
- ABSOLUTE BASOPHIL [3]: 0 CELLS/uL
- ABSOLUTE EOSINOPHIL [3]: 58.33 CELLS/uL
- ABSOLUTE LYMPHOCYTE [3]: 13527.67 CELLS/uL
- ABSOLUTE MONOCYTE [3]: 237.33 CELLS/uL
- ABSOLUTE SEGMENTED NEUTROPHIL [3]: 1176.67 CELLS/uL
- BASOPHIL [3]: 0%
- EOSINOPHIL [3]: 0.33%
- ERYTHROCYTE COUNT [3]: 5.67 x10E6/uL
- HEMATOCRIT [3]: 36.13%
- HEMOGLOBIN [3]: 14 G/DL
- LEUKOCYTE COUNT [3]: 15 x10E3/uL
- LYMPHOCYTE [3]: 90%
- MEAN CORPUSCULAR HEMOGLOBIN [3]: 24.8 pg
- MEAN CORPUSCULAR HEMOGLOBIN CONCENTRATION [3]: 38.83 G/DL
- MEAN CORPUSCULAR VOLUME [3]: 63.9 fL
- MONOCYTE [3]: 1.67%
- NEUTROPHIL [3]: 8%
- NUCLEATED RED BLOOD CELLS [3]: 0.33 /100WBC
- PLATELET COUNT [3]: 1335 x10E3/uL
- ALANINE AMINOTRANSFERASE [3]: 50.67 u/L
- ALBUMIN [3]: 3.9 G/DL
- ALKALINE PHOSPHATASE [3]: 377.67 u/L
- ASPARTATE AMINOTRANSFERASE [3]: 91 u/L
- BLOOD UREA NITROGEN [3]: 15 mg/dL
- CARBON DIOXIDE [3]: 25.67 mmol/L
- CHLORIDE [3]: 102 MEQ/L
- CHOLESTEROL [3]: 61.33 mg/dL
- CREATINE PHOSPHOKINASE [3]: 251.67 u/L
- CREATININE [3]: 0.12 mg/dL
- GLUCOSE [3]: 152 mg/dL
- LACTATE DEHYDROGENASE [3]: 249 u/L
- LIPASE [3]: 9 u/L
- PHOSPHORUS [3]: 13.2 mg/dL
- POTASSIUM [3]: 6.44 MEQ/L
- SODIUM [3]: 143.4 MEQ/L
- TOTAL BILIRUBIN [3]: 0.13 mg/dL
- TOTAL PROTEIN [3]: 5.73 G/DL
- URIC ACID [3]: 1.43 mg/dL
- ABSOLUTE BASOPHIL [4]: 0 CELLS/uL
- ABSOLUTE EOSINOPHIL [4]: 62 CELLS/uL
- ABSOLUTE LYMPHOCYTE [4]: 7311 CELLS/uL
- ABSOLUTE MONOCYTE [4]: 83 CELLS/uL
- ABSOLUTE SEGMENTED NEUTROPHIL [4]: 677.33 CELLS/uL
- BASOPHIL [4]: 0%
- EOSINOPHIL [4]: 0.67%
- ERYTHROCYTE COUNT [4]: 5.58 x10E6/uL
- HEMATOCRIT [4]: 34.4%
- HEMOGLOBIN [4]: 13.3 G/DL
- LEUKOCYTE COUNT [4]: 8.13 x10E3/uL
- LYMPHOCYTE [4]: 90.33%
- MEAN CORPUSCULAR HEMOGLOBIN [4]: 23.87 pg
- MEAN CORPUSCULAR HEMOGLOBIN CONCENTRATION [4]: 38.67 G/DL
- MEAN CORPUSCULAR VOLUME [4]: 61.8 fL
- MONOCYTE [4]: 1%
- NEUTROPHIL [4]: 8%
- NUCLEATED RED BLOOD CELLS [4]: 0 /100WBC
- PLATELET COUNT [4]: 1046.67 x10E3/uL
- ALANINE AMINOTRANSFERASE [4]: 55.33 u/L
- ALBUMIN [4]: 3.93 G/DL
- ALKALINE PHOSPHATASE [4]: 372 u/L
- ASPARTATE AMINOTRANSFERASE [4]: 82.67 u/L
- BLOOD UREA NITROGEN [4]: 16.33 mg/dL
- CARBON DIOXIDE [4]: 31.67 mmol/L
- CHLORIDE [4]: 102.33 MEQ/L
- CHOLESTEROL [4]: 65.33 mg/dL
- CREATINE PHOSPHOKINASE [4]: 351.67 u/L
- CREATININE [4]: 0.16 mg/dL
- GLUCOSE [4]: 143.67 mg/dL
- LACTATE DEHYDROGENASE [4]: 104.67 u/L
- LIPASE [4]: 10 u/L
- PHOSPHORUS [4]: 10.67 mg/dL
- POTASSIUM [4]: 5.96 MEQ/L
- SODIUM [4]: 145.73 MEQ/L
- TOTAL BILIRUBIN [4]: 0.13 mg/dL
- TOTAL PROTEIN [4]: 5.97 G/DL
- URIC ACID [4]: 0.63 mg/dL
